Assays:
Test in all cases: relative viability (nuclei count vs DMSO), 5 days (fraction); higher = more cells survive
A-427 = test system: A-427
Method in brief: (§1)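 For relative viability, nuclei counts in treated wells were divided by those in vehicle wells. Lung cancer cell lines had been pin-tool dosed in 1536-well plates the day after seeding and cultured for 5 days, then fixed and stained in one step (final 0.05% Triton X-100, 1% formaldehyde, 1 ug/ml Hoechst) and imaged at 4×. Doses were one drug alone or a fixed anchor-drug dose plus five library-drug doses (not always all listed) in √10 steps, and values are duplicate-plate medians.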

CAL-12T = test system: CAL-12T
Method in brief: as §1

COR-L 105 = test system: COR-L 105
Method in brief: as §1

COR-L23 = test system: COR-L23
Method in brief: as §1

EPLC-272H = test system: EPLC-272H
Method in brief: as §1

HOP-62 = test system: HOP-62
Method in brief: as §1

LCLC-103H = test system: LCLC-103H
Method in brief: as §1

LXF-289 = test system: LXF-289
Method in brief: as §1

NCI-H1395 = test system: NCI-H1395
Method in brief: as §1

NCI-H1651 = test system: NCI-H1651
Method in brief: as §1

NCI-H1975 = test system: NCI-H1975
Method in brief: as §1

NCI-H1993 = test system: NCI-H1993
Method in brief: as §1

NCI-H2023 = test system: NCI-H2023
Method in brief: as §1

NCI-H2085 = test system: NCI-H2085
Method in brief: as §1

NCI-H2087 = test system: NCI-H2087
Method in brief: as §1

NCI-H2170 = test system: NCI-H2170
Method in brief: as §1

NCI-H3122 = test system: NCI-H3122
Method in brief: as §1

NCI-H596 = test system: NCI-H596
Method in brief: as §1

NCI-H647 = test system: NCI-H647
Method in brief: as §1

NCI-H650 = test system: NCI-H650
Method in brief: as §1

PC-14 = test system: PC-14
Method in brief: as §1

RERF-LC-KJ = test system: RERF-LC-KJ
Method in brief: as §1

SK-MES-1 = test system: SK-MES-1
Method in brief: as §1

O=c1[nH]c2ccccc2n1C1CCN(CCCC(c2ccc(F)cc2)c2ccc(F)cc2)CC1 [Pimozide] + O=C(c1cc(Cc2n[nH]c(=O)c3ccccc23)ccc1F)N1CCN(C(=O)C2CC2)CC1 [Olaparib] (partner 8 µM)
relative viability (A-427; first compound 0.08 µM): 0.708
relative viability (A-427; first compound 0.253 µM): 0.681
relative viability (A-427; first compound 0.8 µM): 0.661
relative viability (A-427; first compound 2.53 µM): 0.691
relative viability (A-427; first compound 8 µM): 0.685
relative viability (CAL-12T; first compound 0.08 µM): 0.672
relative viability (CAL-12T; first compound 0.253 µM): 0.687
relative viability (CAL-12T; first compound 0.8 µM): 0.709
relative viability (CAL-12T; first compound 2.53 µM): 0.698
relative viability (CAL-12T; first compound 8 µM): 0.623
relative viability (COR-L 105; first compound 0.08 µM): 0.664
relative viability (COR-L 105; first compound 0.253 µM): 0.659
relative viability (COR-L 105; first compound 0.8 µM): 0.83
relative viability (COR-L 105; first compound 2.53 µM): 0.696
relative viability (COR-L 105; first compound 8 µM): 0.664
relative viability (COR-L23; first compound 0.08 µM): 0.325
relative viability (COR-L23; first compound 0.253 µM): 0.308
relative viability (COR-L23; first compound 0.8 µM): 0.386
relative viability (COR-L23; first compound 2.53 µM): 0.383
relative viability (COR-L23; first compound 8 µM): 0.336
relative viability (EPLC-272H; first compound 0.08 µM): 0.869
relative viability (EPLC-272H; first compound 0.253 µM): 0.709
relative viability (EPLC-272H; first compound 0.8 µM): 0.847
relative viability (EPLC-272H; first compound 2.53 µM): 0.554
relative viability (EPLC-272H; first compound 8 µM): 0.646
relative viability (HOP-62; first compound 0.08 µM): 0.588
relative viability (HOP-62; first compound 0.253 µM): 0.342
relative viability (HOP-62; first compound 0.8 µM): 0.356
relative viability (HOP-62; first compound 2.53 µM): 0.39
relative viability (HOP-62; first compound 8 µM): 0.56
relative viability (LCLC-103H; first compound 0.08 µM): 0.782
relative viability (LCLC-103H; first compound 0.253 µM): 0.721
relative viability (LCLC-103H; first compound 0.8 µM): 0.722
relative viability (LCLC-103H; first compound 2.53 µM): 0.695
relative viability (LCLC-103H; first compound 8 µM): 0.72
relative viability (LXF-289; first compound 0.08 µM): 1.09
relative viability (LXF-289; first compound 0.253 µM): 1.04
relative viability (LXF-289; first compound 0.8 µM): 1.01
relative viability (LXF-289; first compound 2.53 µM): 0.937
relative viability (LXF-289; first compound 8 µM): 1.03
relative viability (NCI-H1395; first compound 0.08 µM): 0.445
relative viability (NCI-H1395; first compound 0.253 µM): 0.478
relative viability (NCI-H1395; first compound 0.8 µM): 0.475
relative viability (NCI-H1395; first compound 2.53 µM): 0.456
relative viability (NCI-H1395; first compound 8 µM): 0.419
relative viability (NCI-H1651; first compound 0.08 µM): 0.203
relative viability (NCI-H1651; first compound 0.253 µM): 0.189
relative viability (NCI-H1651; first compound 0.8 µM): 0.177
relative viability (NCI-H1651; first compound 2.53 µM): 0.182
relative viability (NCI-H1651; first compound 8 µM): 0.187
relative viability (NCI-H1975; first compound 0.08 µM): 0.934
relative viability (NCI-H1975; first compound 0.253 µM): 0.782
relative viability (NCI-H1975; first compound 0.8 µM): 0.858
relative viability (NCI-H1975; first compound 2.53 µM): 0.75
relative viability (NCI-H1975; first compound 8 µM): 0.625
relative viability (NCI-H1993; first compound 0.08 µM): 0.95
relative viability (NCI-H1993; first compound 0.253 µM): 1.12
relative viability (NCI-H1993; first compound 0.8 µM): 0.918
relative viability (NCI-H1993; first compound 2.53 µM): 1.05
relative viability (NCI-H1993; first compound 8 µM): 1.13
relative viability (NCI-H2023; first compound 0.08 µM): 0.481
relative viability (NCI-H2023; first compound 0.253 µM): 0.47
relative viability (NCI-H2023; first compound 0.8 µM): 0.444
relative viability (NCI-H2023; first compound 2.53 µM): 0.351
relative viability (NCI-H2023; first compound 8 µM): 0.348
relative viability (NCI-H2085; first compound 0.08 µM): 0.691
relative viability (NCI-H2085; first compound 0.253 µM): 0.82
relative viability (NCI-H2085; first compound 0.8 µM): 0.767
relative viability (NCI-H2085; first compound 2.53 µM): 0.783
relative viability (NCI-H2085; first compound 8 µM): 0.796
relative viability (NCI-H2087; first compound 0.08 µM): 0.679
relative viability (NCI-H2087; first compound 0.253 µM): 0.582
relative viability (NCI-H2087; first compound 2.53 µM): 0.579
relative viability (NCI-H2087; first compound 8 µM): 0.45
relative viability (NCI-H2170; first compound 0.08 µM): 0.592
relative viability (NCI-H2170; first compound 0.253 µM): 0.554
relative viability (NCI-H2170; first compound 0.8 µM): 0.608
relative viability (NCI-H2170; first compound 2.53 µM): 0.593
relative viability (NCI-H2170; first compound 8 µM): 0.543
relative viability (NCI-H3122; first compound 0.08 µM): 0.529
relative viability (NCI-H3122; first compound 0.253 µM): 0.684
relative viability (NCI-H3122; first compound 0.8 µM): 0.66
relative viability (NCI-H3122; first compound 2.53 µM): 0.637
relative viability (NCI-H3122; first compound 8 µM): 0.576
relative viability (NCI-H596; first compound 0.08 µM): 0.768
relative viability (NCI-H596; first compound 0.253 µM): 0.755
relative viability (NCI-H596; first compound 0.8 µM): 0.663
relative viability (NCI-H596; first compound 2.53 µM): 0.745
relative viability (NCI-H596; first compound 8 µM): 0.779
relative viability (NCI-H647; first compound 0.08 µM): 0.562
relative viability (NCI-H647; first compound 0.253 µM): 0.503
relative viability (NCI-H647; first compound 0.8 µM): 0.391
relative viability (NCI-H647; first compound 2.53 µM): 0.495
relative viability (NCI-H647; first compound 8 µM): 0.28
relative viability (NCI-H650; first compound 0.08 µM): 0.409
relative viability (NCI-H650; first compound 0.253 µM): 0.333
relative viability (NCI-H650; first compound 0.8 µM): 0.475
relative viability (NCI-H650; first compound 2.53 µM): 0.404
relative viability (NCI-H650; first compound 8 µM): 0.408
relative viability (PC-14; first compound 0.253 µM): 0.276
relative viability (PC-14; first compound 0.8 µM): 0.225
relative viability (PC-14; first compound 2.53 µM): 0.215
relative viability (PC-14; first compound 8 µM): 0.209
relative viability (RERF-LC-KJ; first compound 0.08 µM): 0.873
relative viability (RERF-LC-KJ; first compound 0.253 µM): 0.823
relative viability (RERF-LC-KJ; first compound 0.8 µM): 0.838
relative viability (RERF-LC-KJ; first compound 2.53 µM): 0.659
relative viability (RERF-LC-KJ; first compound 8 µM): 0.648
relative viability (SK-MES-1; first compound 0.08 µM): 0.715
relative viability (SK-MES-1; first compound 0.253 µM): 0.686
relative viability (SK-MES-1; first compound 0.8 µM): 0.749
relative viability (SK-MES-1; first compound 2.53 µM): 0.697
relative viability (SK-MES-1; first compound 8 µM): 0.619
